# Where two headings read alike, the source gives them in different places.
# Experiments:
# CGMMV = details: Tri Sodium Phosphate 10%, negative control 0.13
# Description: In this case, cucumber seeds have been obtained from a commercial seed lot, naturally infected by CGMMV in the production field.
# The seeds were disinfected by standard method and by vacuum infiltration method. In this case, vacuum is applied at maximal pressure of 975-985 mbar from the beginning. […] The vacuum cycles continue until floating seeds are no longer sinking. The floating seeds are then removed and discarded. This process takes 15-20 minutes.
# In this case two chemicals were used.
# We also tested the effect of different concentration of Na-Dichloroisocyanurate applied by vacuum infiltration on CGMMV and germination (table II) treatment E is untreated control; treatment F is vacuum infiltration of Na-Dichloroisocyanurate 0.75%; treatment G is vacuum infiltration of Na-Dichloroisocyanurate 1.5% and treatment H is vacuum infiltration of Na-Dich loroisocyanurate 2.0%.
# CGMMV was tested by ELISA assay according to method 7-026 of the international rules for seed testing annex to chapter 7: seed health testing methods; International Seed Testing Association, Zurich, Switzerland, 2010.
# cucumber seeds = details: Tri Sodium Phosphate 10%
# Description: The germination test was performed according to Annex to chapter 5, International Rules for Seed Testing, International Seed Testing Association, Zurich, Switzerland, 1996.
# Acidovorax citrulli = details: cited from earlier work; for Eradication of seed borne Acidovorax citrulli inoculum: chemical seed treatment of infected seeds (Dutta et al. 2012)
# [1] = tested on: Clavibacter michiganensis subsp. michiganensis; experiment: Disinfection of tomato seeds naturally infected by CMM; ISF detection method; type: in vivo; details: 1% Ca(ClO)2
# Text: (§1) Tomato seeds have been obtained from commercial seed lot naturally infected by CMM in the production field. Vacuum treatment was done by vacuum infiltration (VI) method using 4 liters of 1% calcium hypochlorite, as described hereafter. The vacuum was applied while seeds were located in a perforated basket above the disinfectant solution in a closed chamber. A vacuum pressure was applied at maximal reachable vacuum pressure of about 975-985 mbar, followed by submerging the seeds into the solution and releasing the vacuum. Vacuum/de-vacuum cycles were repeated 4 times and at the end, all the seeds sunk. The seeds were collected, rinsed for 5 minutes and dried. Soaking treatment was done in the same solution for one hour after VI treatment or without VI treatment.
# Clavibacter michiganensis subsp. michiganensis infection results were obtained by using the “method for the detection of Clavibacter michiganensis subsp. michiganensis on tomato seed” according to the International Seed Federation (ISF) Manual of Seed Health Methods, as can be found in the internet site: http://www.worldseed.org/isf/ishi_vegetable.html.
# tomato seeds = experiment: Germination and transplant tests of treated tomato seeds (AOSA, Example 8); type: in vivo; details: 1% Ca(ClO)2; for UNIF (Uniform Transplants) / UT (Useable Transplants): trays in a greenhouse
# Text: as §1
# The germination tests have been done according to the Association of Official Seed Analysts (AOSA) (http://www.aosaseed.com/).
smiles,measurement,setting,value
O=P([O-])([O-])[O-].[Na+].[Na+].[Na+] [Tri Sodium Phosphate],ELISA assay result (rate of extinction at A405),CGMMV; standard disinfection,0.34
same,ELISA assay result (rate of extinction at A405),CGMMV; vacuum infiltration,0.19
same,Germination %,cucumber seeds; standard disinfection,100%
same,Germination %,cucumber seeds; vacuum infiltration,100%
OCl [sodium hypochlorite],Eradication of seed borne Acidovorax citrulli inoculum,Acidovorax citrulli,generally fail to eradicate the bacterium from the infected seeds
same,BFB seedling transmission,Acidovorax citrulli; seed treatment (Walcott 2005),significantly reduce BFB seedling transmission
"[Ca+2].[O-]Cl.[O-]Cl [Ca(ClO)2, calcium hypochlorite]",CMM infection results,[1]; 1 hr soak alone,Positive
same,CMM infection results,[1]; VI alone,Negative
same,CMM infection results,[1]; VI then 1 hr soak,Negative
same,"EN (Energy, early germination counts on Day 5)",tomato seeds; 1 hr soak alone,98
same,"OG (Optimum Germination, counted on Day 14)",tomato seeds; 1 hr soak alone,98
same,UNIF (Uniform Transplants),tomato seeds; 1 hr soak alone,92
same,UT (Useable Transplants),tomato seeds; 1 hr soak alone,95
same,"EN (Energy, early germination counts on Day 5)",tomato seeds; VI alone,96
same,"OG (Optimum Germination, counted on Day 14)",tomato seeds; VI alone,96
same,UNIF (Uniform Transplants),tomato seeds; VI alone,91
same,UT (Useable Transplants),tomato seeds; VI alone,94
same,"EN (Energy, early germination counts on Day 5)",tomato seeds; VI then 1 hr soak,99
same,"OG (Optimum Germination, counted on Day 14)",tomato seeds; VI then 1 hr soak,99
same,UNIF (Uniform Transplants),tomato seeds; VI then 1 hr soak,89
same,UT (Useable Transplants),tomato seeds; VI then 1 hr soak,92
CC(=O)OO [peroxyacetic acid],Eradication of seed borne Acidovorax citrulli inoculum,Acidovorax citrulli,generally fail to eradicate the bacterium from the infected seeds
same,BFB seedling transmission,Acidovorax citrulli; seed treatment (Walcott 2005),significantly reduce BFB seedling transmission
Cl [hydrochloric acid],Eradication of seed borne Acidovorax citrulli inoculum,Acidovorax citrulli,generally fail to eradicate the bacterium from the infected seeds
same,BFB seedling transmission,Acidovorax citrulli; in vivo,significantly reduce BFB seedling transmission

# From patent US12035716B2, “Treatment for seeds disinfection” (VILMORIN & CIE, priority 2013, dated 2024)
